Measurements: ChEMBL document CHEMBL3769336, “Discovery of a Chemical Tool Inhibitor Targeting the Bromodomains of TRIM24 and BRPF” (J Med Chem, 2016)
Calls of active or inactive are those of the source. The rule behind the calls is not given here.

How the values were obtained:
[1] = molecular target: T1, Transcription intermediary factor 1-alpha (Homo sapiens, UniProt O15164); test: Binding affinity to N-terminal His6-SUMO-1-tagged recombinant human TRIM24 bromodomain expressed in Escherichia coli BL21(DE3)-R3-pRARE2 cells by isothermal titration calorimetry
T1 sequence (O15164 whole entry): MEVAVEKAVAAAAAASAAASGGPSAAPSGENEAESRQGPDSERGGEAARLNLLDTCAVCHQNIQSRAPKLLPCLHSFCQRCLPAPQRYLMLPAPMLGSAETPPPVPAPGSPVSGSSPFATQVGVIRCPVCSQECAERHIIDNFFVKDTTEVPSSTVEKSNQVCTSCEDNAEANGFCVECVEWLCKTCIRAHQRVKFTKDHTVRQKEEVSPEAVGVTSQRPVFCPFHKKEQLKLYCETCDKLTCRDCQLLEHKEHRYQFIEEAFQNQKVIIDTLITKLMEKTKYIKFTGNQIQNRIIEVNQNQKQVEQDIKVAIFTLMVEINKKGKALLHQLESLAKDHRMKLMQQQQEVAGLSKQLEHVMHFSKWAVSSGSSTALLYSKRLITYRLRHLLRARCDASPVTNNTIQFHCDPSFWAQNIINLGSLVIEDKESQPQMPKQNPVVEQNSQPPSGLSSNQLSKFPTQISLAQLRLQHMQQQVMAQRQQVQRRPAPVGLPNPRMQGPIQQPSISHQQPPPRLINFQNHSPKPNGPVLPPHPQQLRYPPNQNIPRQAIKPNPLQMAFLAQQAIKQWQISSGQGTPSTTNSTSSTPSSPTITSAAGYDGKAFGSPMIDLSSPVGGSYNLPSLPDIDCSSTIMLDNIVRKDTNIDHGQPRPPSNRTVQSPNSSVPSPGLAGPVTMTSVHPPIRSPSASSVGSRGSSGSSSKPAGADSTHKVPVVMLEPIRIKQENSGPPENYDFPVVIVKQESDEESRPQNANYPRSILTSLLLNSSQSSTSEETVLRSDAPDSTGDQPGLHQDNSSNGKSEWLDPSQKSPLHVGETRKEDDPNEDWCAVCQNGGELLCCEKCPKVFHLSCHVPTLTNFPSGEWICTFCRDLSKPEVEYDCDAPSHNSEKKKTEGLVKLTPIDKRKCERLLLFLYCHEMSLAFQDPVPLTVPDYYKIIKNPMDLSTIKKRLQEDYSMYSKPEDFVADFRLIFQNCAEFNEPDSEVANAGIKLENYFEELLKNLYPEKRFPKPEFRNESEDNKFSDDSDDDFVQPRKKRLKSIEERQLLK

[2] = molecular target: T2, Peregrin (Homo sapiens, UniProt P55201); test: Binding affinity to BRPF1B (unknown origin) by isothermal titration calorimetry
T2 sequence (P55201 whole entry): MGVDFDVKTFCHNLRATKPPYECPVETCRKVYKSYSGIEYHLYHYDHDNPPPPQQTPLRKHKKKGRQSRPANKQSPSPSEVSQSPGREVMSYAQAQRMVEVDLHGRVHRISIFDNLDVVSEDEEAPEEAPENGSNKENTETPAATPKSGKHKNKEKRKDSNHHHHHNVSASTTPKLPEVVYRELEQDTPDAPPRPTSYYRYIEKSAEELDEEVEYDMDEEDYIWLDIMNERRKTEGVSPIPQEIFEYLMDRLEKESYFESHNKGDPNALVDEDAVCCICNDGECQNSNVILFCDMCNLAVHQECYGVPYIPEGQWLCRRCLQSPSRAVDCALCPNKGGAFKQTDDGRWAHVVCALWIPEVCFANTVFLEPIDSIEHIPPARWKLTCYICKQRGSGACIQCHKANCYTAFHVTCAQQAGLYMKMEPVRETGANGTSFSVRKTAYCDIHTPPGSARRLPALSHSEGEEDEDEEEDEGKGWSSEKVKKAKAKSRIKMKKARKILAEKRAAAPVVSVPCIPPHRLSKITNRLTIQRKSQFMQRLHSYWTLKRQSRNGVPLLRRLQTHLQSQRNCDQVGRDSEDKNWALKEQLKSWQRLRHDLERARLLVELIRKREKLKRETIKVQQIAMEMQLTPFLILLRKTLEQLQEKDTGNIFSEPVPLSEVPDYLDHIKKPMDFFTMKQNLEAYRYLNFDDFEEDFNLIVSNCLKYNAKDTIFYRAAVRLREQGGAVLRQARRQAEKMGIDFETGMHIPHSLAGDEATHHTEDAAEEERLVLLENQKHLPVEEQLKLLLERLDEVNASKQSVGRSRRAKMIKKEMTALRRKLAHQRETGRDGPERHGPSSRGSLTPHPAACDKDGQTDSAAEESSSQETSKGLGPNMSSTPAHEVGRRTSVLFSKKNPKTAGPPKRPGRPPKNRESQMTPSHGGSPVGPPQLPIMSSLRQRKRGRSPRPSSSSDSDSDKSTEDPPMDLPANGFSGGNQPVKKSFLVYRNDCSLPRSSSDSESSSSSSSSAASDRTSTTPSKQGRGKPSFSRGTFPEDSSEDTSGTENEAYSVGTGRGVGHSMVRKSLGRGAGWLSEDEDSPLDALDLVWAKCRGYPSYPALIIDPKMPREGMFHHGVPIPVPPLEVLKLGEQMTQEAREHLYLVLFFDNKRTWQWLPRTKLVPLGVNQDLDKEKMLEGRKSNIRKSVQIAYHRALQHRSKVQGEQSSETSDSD

[3] = system: RKO; test: Cytotoxicity against human RKO cells at 5x10'-5 M to 8x10'-8 M after 72 hrs by CellTiter-Glo assay; type: functional, cell-based

Kd [1]: 222 nM | Kd [2]: 137 nM
SMILES: COc1ccc(Oc2cc3c(cc2NS(=O)(=O)c2ccc(OC)c(OC)c2)n(C)c(=O)n3C)cc1
Activity [3]: inactive
